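How tested: cells in 96-well plates exposed to compound for 48 hours at five concentrations. GI50: concentration for 50% inhibition of growth.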 Active and inactive are the calls of the source. No stated cut-off is given here; in the data, active = GI50 up to about 1.1 µM and inactive = higher.
Experiments:
Assay in all cases: NCI tumour cell line growth inhibition, 48 h
CAKI-1 = system: CAKI-1
CCRF-CEM = system: CCRF-CEM
EKVX = system: EKVX
K562 = system: K562
M19-MEL = system: M19-MEL
Malme-3M = system: Malme-3M
NCI-H460 = system: NCI-H460
OVCAR-8 = system: OVCAR-8
RPMI-8226 = system: RPMI-8226
RXF 393 = system: RXF 393
SF-295 = system: SF-295
SK-MEL-5 = system: SK-MEL-5
SK-OV-3 = system: SK-OV-3
SN12C = system: SN12C
SNB-19 = system: SNB-19
SW-620 = system: SW-620
U-251 = system: U-251
UACC-62 = system: UACC-62
UO-31 = system: UO-31
MCF7 = system: MCF7

Measured: GI50

COc1ccc(/C(Cl)=C(\C=O)c2ccc(OC)cc2)cc1
inactive: CAKI-1 > 100 µM | CCRF-CEM 22.2 µM | EKVX > 100 µM | K562 63 µM | M19-MEL 93.3 µM | Malme-3M > 100 µM | NCI-H460 31.5 µM | OVCAR-8 59.4 µM | RPMI-8226 37.9 µM | RXF 393 > 100 µM | SF-295 59.8 µM | SK-MEL-5 > 100 µM | SK-OV-3 > 100 µM | SN12C > 100 µM | SNB-19 > 100 µM | SW-620 > 100 µM | U-251 70.8 µM | UACC-62 > 100 µM | UO-31 > 100 µM

O=[N+]([O-])c1ccc(C2=Nc3ccccc3SC(c3ccccc3)C2)cc1 (stereo not drawn)
inactive: CAKI-1 17.6 µM | CCRF-CEM 14.7 µM | EKVX 16.6 µM | K562 15.8 µM | M19-MEL 15.4 µM | NCI-H460 20.6 µM | OVCAR-8 20.8 µM | RPMI-8226 14.8 µM | RXF 393 24.6 µM | SF-295 20.2 µM | SK-MEL-5 18.1 µM | SK-OV-3 21 µM | SN12C 17 µM | SNB-19 17 µM | SW-620 14.5 µM | U-251 13.1 µM | UACC-62 13.7 µM | UO-31 12.9 µM

N=c1c2c(=S)n(-c3ccccc3)c(=S)n(-c3ccccc3)c2nc(SCCCN2CCN(c3cccc(Cl)c3)CC2)n1-c1ccccc1
inactive: CAKI-1 84.3 µM | CCRF-CEM > 100 µM | EKVX > 100 µM | K562 > 100 µM | MCF7 53.2 µM | Malme-3M > 100 µM | NCI-H460 > 100 µM | OVCAR-8 > 100 µM | RPMI-8226 > 100 µM | RXF 393 > 100 µM | SF-295 45.4 µM | SK-MEL-5 92.7 µM | SK-OV-3 > 100 µM | SW-620 > 100 µM | U-251 > 100 µM | UACC-62 49.2 µM

CC1OC(O)CC(OC(=O)c2ccccc2)C1OC(=O)c1ccccc1 (stereo not drawn)
inactive: CAKI-1 23.3 µM | CCRF-CEM 10.3 µM | K562 16.8 µM | M19-MEL 17.5 µM | Malme-3M 16.6 µM | NCI-H460 49.4 µM | OVCAR-8 15.7 µM | RPMI-8226 8.18 µM | RXF 393 18.8 µM | SF-295 48 µM | SK-MEL-5 16.7 µM | SN12C 17.3 µM | SNB-19 90.4 µM | SW-620 13.3 µM | U-251 30.1 µM | UACC-62 16.7 µM

Nc1cc(S(=O)(=O)O)cc2cc(S(=O)(=O)O)c(/N=N/c3ccc(-c4ccc(/N=N/c5c(S(=O)(=O)O)cc6cc(S(=O)(=O)O)cc(N)c6c5O)cc4)cc3)c(O)c12
inactive: CCRF-CEM > 100 µM | EKVX > 100 µM | K562 > 100 µM | M19-MEL > 100 µM | MCF7 > 100 µM | Malme-3M > 100 µM | NCI-H460 > 100 µM | OVCAR-8 > 100 µM | RPMI-8226 > 100 µM | RXF 393 > 69.5 µM | SF-295 > 100 µM | SK-MEL-5 > 100 µM | SK-OV-3 > 100 µM | SN12C > 100 µM | SNB-19 > 100 µM | SW-620 > 100 µM | U-251 > 100 µM | UO-31 > 100 µM

CNc1ccccc1-c1nc2ccccc2c(=O)o1
inactive: CAKI-1 > 100 µM | CCRF-CEM > 100 µM | EKVX > 100 µM | K562 > 100 µM | M19-MEL > 100 µM | Malme-3M > 100 µM | NCI-H460 > 100 µM | OVCAR-8 > 100 µM | RPMI-8226 > 100 µM | SF-295 41.2 µM | SK-MEL-5 > 100 µM | SK-OV-3 > 100 µM | SN12C > 100 µM | SNB-19 > 100 µM | SW-620 > 100 µM | U-251 > 100 µM | UO-31 > 100 µM

CC1(C)CC[C@]2(C)CC[C@]3(C)C(=CC[C@@H]4[C@@]5(C)CCC(=O)C(C)(C)[C@@H]5[C@H](O)C[C@]43C)[C@@H]2C1
inactive: CAKI-1 18.3 µM | CCRF-CEM 30.8 µM | EKVX 17.8 µM | MCF7 19 µM | Malme-3M 17.5 µM | NCI-H460 18 µM | OVCAR-8 18.9 µM | RPMI-8226 23 µM | RXF 393 16.1 µM | SF-295 17.6 µM | SK-MEL-5 17.4 µM | SK-OV-3 17.6 µM | SN12C 15.1 µM | SNB-19 15.3 µM | SW-620 19.8 µM | U-251 16.9 µM | UACC-62 15.9 µM

COC(=O)c1ccc(/C=C2\N=C(C)OC2=O)cc1
inactive: CAKI-1 > 100 µM | CCRF-CEM > 100 µM | EKVX > 100 µM | K562 > 100 µM | M19-MEL > 100 µM | NCI-H460 > 100 µM | OVCAR-8 > 100 µM | RPMI-8226 > 100 µM | SF-295 > 100 µM | SK-MEL-5 > 100 µM | SK-OV-3 > 100 µM | SN12C > 100 µM | SNB-19 > 100 µM | SW-620 > 100 µM | U-251 > 100 µM | UACC-62 > 100 µM

CC(=O)OC/C=C\Cn1ncc(=O)[nH]c1=O
inactive: CCRF-CEM 17.3 µM | EKVX 20.3 µM | K562 23 µM | MCF7 13 µM | Malme-3M 16.5 µM | NCI-H460 23.3 µM | OVCAR-8 23.7 µM | RPMI-8226 7.71 µM | RXF 393 17.8 µM | SK-MEL-5 12.6 µM | SN12C 22.9 µM | SNB-19 33.4 µM | SW-620 17.1 µM | U-251 15 µM | UO-31 16.1 µM

CN1C2CCC1CC(C)(O)C2 (stereo not drawn)
inactive: CCRF-CEM > 100 µM | EKVX > 100 µM | K562 > 100 µM | MCF7 > 100 µM | Malme-3M > 100 µM | NCI-H460 > 100 µM | OVCAR-8 > 100 µM | RPMI-8226 > 100 µM | RXF 393 > 100 µM | SF-295 > 100 µM | SN12C > 100 µM | SNB-19 > 100 µM | SW-620 > 100 µM | U-251 > 100 µM | UO-31 > 100 µM

COC(=O)/C=C(\C)CCC1SC1(C)C (stereo not drawn)
inactive: CAKI-1 > 100 µM | CCRF-CEM > 100 µM | EKVX > 100 µM | K562 > 100 µM | M19-MEL > 100 µM | Malme-3M > 100 µM | NCI-H460 > 100 µM | OVCAR-8 > 100 µM | RPMI-8226 > 100 µM | RXF 393 > 100 µM | SF-295 > 100 µM | SK-MEL-5 > 100 µM | SK-OV-3 > 100 µM | SN12C > 100 µM | SNB-19 > 100 µM | SW-620 77.3 µM | U-251 > 100 µM | UACC-62 > 100 µM | UO-31 > 100 µM

C/C(=N\O)C1CC(CC(=O)O)C1(C)C (stereo not drawn)
inactive: CAKI-1 > 100 µM | CCRF-CEM > 100 µM | EKVX > 100 µM | K562 > 100 µM | MCF7 > 100 µM | Malme-3M > 100 µM | NCI-H460 > 100 µM | OVCAR-8 > 100 µM | RPMI-8226 > 100 µM | RXF 393 > 100 µM | SF-295 > 100 µM | SK-MEL-5 > 100 µM | SK-OV-3 > 100 µM | SN12C > 100 µM | SNB-19 > 100 µM | SW-620 > 100 µM | U-251 > 100 µM | UACC-62 > 100 µM | UO-31 > 100 µM

S=C1SC(=N\c2ccccc2)/C(=N/c2ccccc2)N1c1ccccc1
inactive: CAKI-1 > 100 µM | CCRF-CEM 18.1 µM | K562 > 100 µM | MCF7 > 100 µM | Malme-3M 45.9 µM | NCI-H460 > 100 µM | OVCAR-8 93.8 µM | RPMI-8226 31.3 µM | RXF 393 > 100 µM | SF-295 34.5 µM | SK-MEL-5 62.7 µM | SK-OV-3 > 100 µM | SN12C > 100 µM | SNB-19 > 100 µM | U-251 90.8 µM | UACC-62 22.8 µM | UO-31 > 100 µM

CCOCCOc1ccc(OCCOCC)cc1
inactive: CCRF-CEM 2.74 µM | K562 7.91 µM | M19-MEL 26 µM | MCF7 14 µM | Malme-3M 13.4 µM | NCI-H460 29.5 µM | OVCAR-8 16.6 µM | RPMI-8226 3.51 µM | RXF 393 18.1 µM | SF-295 25.4 µM | SK-MEL-5 22.4 µM | SK-OV-3 > 81.8 µM | SN12C 16.8 µM | SNB-19 > 100 µM | SW-620 19.2 µM | U-251 34 µM | UACC-62 19 µM | UO-31 13.6 µM

O=C(c1ccco1)C1CC(c2c(O)ccc3ccccc23)=NN1 (stereo not drawn)
inactive: CAKI-1 16.2 µM | CCRF-CEM 9.71 µM | EKVX 13.2 µM | K562 12.4 µM | MCF7 3.15 µM | Malme-3M 16 µM | NCI-H460 7.85 µM | OVCAR-8 18.3 µM | RPMI-8226 13.6 µM | RXF 393 17.4 µM | SF-295 11.2 µM | SK-MEL-5 13.9 µM | SK-OV-3 21 µM | SN12C 20.1 µM | SNB-19 16.4 µM | SW-620 11.8 µM | U-251 14.7 µM | UACC-62 12.6 µM | UO-31 11.1 µM

Nc1n[nH]c(CCCCCCCc2nnc(N)[nH]2)n1
inactive: CCRF-CEM > 100 µM | EKVX > 100 µM | K562 > 100 µM | M19-MEL > 100 µM | Malme-3M > 100 µM | NCI-H460 > 100 µM | RPMI-8226 > 100 µM | RXF 393 > 100 µM | SK-OV-3 > 100 µM | SN12C > 100 µM | SNB-19 > 100 µM | U-251 > 100 µM | UACC-62 > 100 µM | UO-31 > 100 µM
